Results: patent US20240319200A1, “Covalent Molecular Glue Stabilizers and Platform” (The Regents of the University of California, priority 2021, published 2024)

What was measured:
[1] = tested on: Hippo pathway transcription factor luciferase reporter in MCF7 breast cancer cells; assay: Hippo pathway transcription factor luciferase reporter activity; format: cell-based
Source text: (§1) […]. […] […]. […] […].

[2] = tested on: SFN / TAZ phosphopeptide substrate; assay: Fluorescence polarization, 14-3-3 SFN with TAZ phosphopeptide substrate; format: binding; conditions: SFN with C38 and C96 mutated to serines
[3] = tested on: ERα transcription factor luciferase reporter in T47D breast cancer cells; assay: ERα luciferase reporter activity; format: cell-based
Source text: as §1

[4] = tested on: 14-3-3 SFN protein / ERα phosphopeptide substrate; assay: Fluorescence polarization, 14-3-3 SFN with ERα phosphopeptide substrate; format: binding; conditions: SFN with C38 and C96 mutated to serines
Procedure: We performed a fluorescence polarization screen with our cysteine-reactive covalent ligand libraries to identify 14-3-3 covalent molecular glues that enhance interactions of SFN with phosphopeptide 14-3-3 interacting sequences ERα. This screen was performed with recombinant pure 14-3-3 SFN protein and a 5-FAM- or rhodamine-conjugated ERα phosphopeptide substrate looking for cysteine-reactive covalent ligands that would stabilize 14-3-3 interactions with the phosphopeptide substrate.

[5] = SFN knockdown, breast cancer cells

SMILES: C=CC(=O)N1CCC2(CCN(Cc3ccccc3)C2)C1 (stereo not drawn) [EN171]
- Inhibition of Hippo pathway transcription factor luciferase reporter activity ([1]; MCF7 breast cancer cells): dose-responsive inhibition
- EN171-mediated inhibition of Hippo pathway transcriptional activity [1, 5]: significantly attenuated
- EN171-mediated stabilization of 14-3-3 interactions with TAZ [2]: significantly attenuated
- EN171-mediated inhibition of ERα transcriptional activity [3, 5]: significantly attenuated
- Inhibition of ERα luciferase reporter activity ([3]; T47D breast cancer cells): dose-responsive inhibition
- EN171-mediated stabilization of 14-3-3 interactions with ERα [4]: significantly attenuated
